Columns and labels:
[1] = Induction of anti-CD3 antibodies-stimulated human exhausted CD8+ T cell activation assessed fold increase in CTLA4 expression measured by flow cytometry analysis; type: functional, T cell line; further: reference of the scale not given here
[2] = Induction of anti-CD3/CD28 antibodies-stimulated human T cell activation at 1 uM assessed fold increase in CD25 expression measured by ELISA assay; type: functional, T cell line
[3] = Induction of anti-CD3 antibodies-stimulated human exhausted CD4+ T cell activation assessed fold increase in CTLA4 expression measured by flow cytometry analysis; type: functional, T cell line; further: reference of the scale not given here
[4] = Induction of anti-CD3 antibodies-stimulated human T cell activation at 10 uM assessed fold increase in GM-CSF secretion measured by ELISA assay; type: functional, T cell line; further: reference of the scale not given here
[5] = Induction of anti-CD3 antibodies-stimulated human CD8+ T cell activation at 10 uM assessed fold increase in CD69 expression measured by flow cytometry analysis; type: functional, T cell line; further: reference of the scale not given here
[6] = Induction of allogenic human T cell activation at 10 uM assessed fold increase in cell proliferation; type: functional, T cell line
[7] = Induction of anti-CD3 antibodies-stimulated human T cell activation at 1.11 uM assessed fold increase in GM-CSF secretion measured by ELISA assay; type: functional, T cell line; further: reference of the scale not given here
[8] = Induction of anti-CD3/CD28 antibodies-stimulated human anergic T cell activation at 10 uM assessed fold increase in IFN-gamma secretion measured by ELISA assay; type: functional, T cell line
[9] = Induction of anti-CD3 antibodies-stimulated human exhausted T cell activation assessed fold increase in GM-CSF secretion measured by ELISA assay; type: functional, T cell line; further: reference of the scale not given here
[10] = Induction of anti-CD3/CD28 antibodies-stimulated human T cell activation at 0.3 uM assessed fold increase in CD25 expression measured by ELISA assay; type: functional, T cell line
[11] = Induction of anti-CD3/CD28 antibodies-stimulated human CD4+ T cell activation at 10 uM assessed fold increase in CD69 expression measured by flow cytometry analysis; type: functional, T cell line
[12] = Induction of anti-CD3 antibodies-stimulated human CD4+ T cell activation at 1.11 uM assessed fold increase in CD69 expression measured by flow cytometry analysis; type: functional, T cell line; further: reference of the scale not given here
[13] = Induction of activation of human CD56+ CD3- NK cells co-cultured with human K562 cells in 1:1 ratio and assessed as increase in TNF-alpha secretion at 10 uM measured by ELISA assay; type: functional, Natural killer cell
[14] = Induction of anti-CD3/CD28 antibodies-stimulated human CD8+ T cell activation at 1.11 uM assessed fold increase in CD69 expression measured by flow cytometry analysis; type: functional, T cell line
[15] = Induction of anti-CD3/CD28 antibodies-stimulated human CD8+ T cell activation at 1.11 uM assessed fold increase in cell proliferation measured by flow cytometry analysis; type: functional, T cell line
[16] = Induction of anti-CD3/CD28 antibodies-stimulated human T cell activation at 4 uM assessed fold increase in CD25 expression measured by ELISA assay; type: functional, T cell line
[17] = Induction of anti-CD3/CD28 antibodies-stimulated human CD8+ T cell activation at 10 uM assessed fold increase in cell proliferation measured by flow cytometry analysis; type: functional, T cell line
[18] = Induction of anti-CD3 antibodies-stimulated human T cell activation at 8 uM assessed fold increase in IL-2 secretion measured by ELISA assay; type: functional, T cell line; further: reference of the scale not given here
[19] = Induction of activation of human CD56+ CD3- NK cells co-cultured with human K562 cells in 1:1 ratio and assessed as increase in TNF-alpha secretion at 0.625 uM measured by ELISA assay; type: functional, Natural killer cell
[20] = Induction of anti-CD3 antibodies-stimulated human CD4+ T cell activation at 10 uM assessed fold increase in CD69 expression measured by flow cytometry analysis; type: functional, T cell line; further: reference of the scale not given here
[21] = Induction of anti-CD3/CD28 antibodies-stimulated human T cell activation at 1.11 uM assessed fold increase in GM-CSF secretion measured by ELISA assay; type: functional, T cell line
[22] = Induction of anti-CD3 antibodies-stimulated human CD8+ T cell activation at 1.11 uM assessed fold increase in cell proliferation measured by flow cytometry analysis; type: functional, T cell line; further: reference of the scale not given here
[23] = Induction of activation of human CD56+ CD3- NK cells co-cultured with human K562 cells in 1:1 ratio and assessed as increase in IFN-gamma secretion at 0.625 uM measured by ELISA assay; type: functional, Natural killer cell
[24] = test system: B cell; assay: Induction of anti-IgM-stimulated human CD20+ B cell activation at 10 to 1000 uM assessed as increase in CD69 expression measured as mean fluorescence intensity AUC by flow cytometry analysis; type: functional, cell-based; conditions: dose 10-1000 µM
[25] = Induction of anti-CD3/CD28 antibodies-stimulated human T cell activation at 10 uM assessed fold increase in TNF-alpha secretion measured by ELISA assay; type: functional, T cell line
[26] = Induction of anti-CD3 antibodies-stimulated human T cell activation at 10 uM assessed fold increase in TNF-alpha secretion measured by ELISA assay; type: functional, T cell line; further: reference of the scale not given here
[27] = Induction of anti-CD3 antibodies-stimulated human T cell activation at 1 uM assessed fold increase in CD25 expression measured by ELISA assay; type: functional, T cell line; further: reference of the scale not given here
[28] = Induction of anti-CD3 antibodies-stimulated human exhausted T cell activation assessed fold increase in IL-2 secretion measured by ELISA assay; type: functional, T cell line; further: reference of the scale not given here
[29] = Induction of anti-CD3/CD28 antibodies-stimulated human anergic T cell activation at 0.37 uM assessed fold increase in IFN-gamma secretion measured by ELISA assay; type: functional, T cell line
[30] = Induction of anti-CD3/CD28 antibodies-stimulated human CD4+ T cell activation at 1.11 uM assessed fold increase in CD69 expression measured by flow cytometry analysis; type: functional, T cell line
[31] = Induction of anti-CD3 antibodies-stimulated human T cell activation at 1 uM assessed fold increase in IL-2 secretion measured by ELISA assay; type: functional, T cell line; further: reference of the scale not given here
[32] = Induction of anti-CD3 antibodies-stimulated human T cell activation at 8 uM assessed fold increase in CD25 expression measured by ELISA assay; type: functional, T cell line; further: reference of the scale not given here
[33] = Induction of anti-CD3/CD28 antibodies-stimulated human T cell activation at 1 uM assessed fold increase in IL-2 secretion measured by ELISA assay; type: functional, T cell line
[34] = Induction of anti-CD3/CD28 antibodies-stimulated human T cell activation at 0.3 uM assessed fold increase in IL-2 secretion measured by ELISA assay; type: functional, T cell line
[35] = Induction of anti-CD3 antibodies-stimulated human T cell activation at 10 uM assessed fold increase in IFN-gamma secretion measured by ELISA assay; type: functional, T cell line; further: reference of the scale not given here
[36] = Induction of activation of human CD56+ CD3- NK cells co-cultured with human K562 cells in 1:1 ratio and assessed as increase in IFN-gamma secretion at 2.5 uM measured by ELISA assay; type: functional, Natural killer cell
[37] = Induction of activation of human CD56+ CD3- NK cells co-cultured with human K562 cells in 1:1 ratio and assessed as increase in IFN-gamma secretion at 10 uM measured by ELISA assay; type: functional, Natural killer cell
[38] = Induction of anti-CD3/CD28 antibodies-stimulated human T cell activation at 1.11 uM assessed fold increase in IFN-gamma secretion measured by ELISA assay; type: functional, T cell line

SMILES | fold change (FC) [1] | fold change (FC) [2] | fold change (FC) [3] | fold change (FC) [4] | fold change (FC) [5] | fold change (FC) [6] | fold change (FC) [7] | fold change (FC) [8] | fold change (FC) [9] | fold change (FC) [10] | fold change (FC) [11] | fold change (FC) [12] | fold change (FC) [13] | fold change (FC) [14] | fold change (FC) [15] | fold change (FC) [16] | fold change (FC) [17] | fold change (FC) [18] | fold change (FC) [19] | fold change (FC) [20] | further results
C[C@H](Cc1nncn1C)c1cccc(N2Cc3c(cc(CN4CC[C@H](F)C4)cc3C(F)(F)F)C2=O)c1 | >1.61 | 1.31 | >1.61 | >4 | 1.401 | >3 | 2.01 | >4.01 | >1.61 | 1.01 | >1.601 | >1.601 | 2.01 | 1.201 | >4 | 1.31 | >4 | >=0.201 | 2.01 | >1.601 | fold change (FC) [21]: >4; fold change (FC) [22]: >4; fold change (FC) [23]: 2.01; AUC [24]: 1.01; fold change (FC) [25]: 2.01; fold change (FC) [26]: 1.51; fold change (FC) [27]: >=1.001; fold change (FC) [28]: >3.01; fold change (FC) [29]: >4.01; fold change (FC) [30]: >1.601; fold change (FC) [31]: 0.151; fold change (FC) [32]: >=1.001; fold change (FC) [33]: >=7.5; fold change (FC) [34]: 5; fold change (FC) [35]: >4; fold change (FC) [36]: >=5; fold change (FC) [37]: >=5; fold change (FC) [38]: >4
Cn1cnnc1CC1(c2cccc(N3Cc4c(cc(CN5CC[C@H](C#N)C5)cc4C(F)(F)F)C3=O)c2)COC1 | >1.61 | 1.31 | >1.61 | 2.01 | 1.201 | 2.01 | 2.01 | 2.51 | 1.41 | 1.31 | 1.401 | 1.401 | 2.01 | 1.201 | 2.01 | 1.31 | 3.01 | >=0.201 | 1.01 | >1.601 | fold change (FC) [21]: 2.01; fold change (FC) [22]: 3.01; fold change (FC) [23]: 2.01; AUC [24]: 1.01; fold change (FC) [25]: 2.01; fold change (FC) [26]: 1.51; fold change (FC) [27]: >=1.001; fold change (FC) [28]: <=2.5; fold change (FC) [29]: <=2.5; fold change (FC) [30]: 1.201; fold change (FC) [31]: >=0.201; fold change (FC) [32]: >=1.001; fold change (FC) [33]: >=7.5; fold change (FC) [34]: 5; fold change (FC) [35]: 3.01; fold change (FC) [36]: 1.01; fold change (FC) [37]: 2.01; fold change (FC) [38]: 3.01
